# Patent publication US5763435A, “Sulfate conjugates of ursodeoxycholic acid, and their beneficial use in inflammatory disorders” (priority 1995, dated 1998)
# “Also recorded” adds a separate entry of the source.
# Assays:
# [1] = tested on: Principal Bile Acids in Liver; test: Bile acid composition of liver tissue after oral administration (GC-MS); format: in vivo, Sprague-Dawley rats
# Description: Male Sprague-Dawley rats (Harlan Sprague-Dawley, Inc., Indianapolis, Ind.), weighing 210-290 g, were maintained on a 12-hour light-dark cycle and fed standard laboratory chow ad libitum for 3 days. The animals were then transferred to metabolic cages in which they were housed individually and fed the same diet. UDCA, UDCA 3-sulfate, UDCA 7-sulfate, and UDCA 3,7-disulfate were administered by gavage at a dose of 250 mg/day for 4 consecutive days. Each group comprised 3-6 rats. Body weights of the animals were measured each day. On day 5, the animals were killed by exsanguination under ether anesthesia. Plasma was collected and frozen at -20° C. The liver was removed, rinsed in normal saline, and flash-frozen in liquid nitrogen. Urine and feces were collected every 24 hours and frozen at -20° C. All animals received humane care in compliance with the "Guide for the Care and Use of Laboratory Animals" prepared by the National Academy of Sciences (National Institutes of Health publication no. 86-23, revised in 1985).
# Samples of liver (100 mg) were ground to a fine paste, and bile acids were extracted by reflux and passage through a column of Lipidex 1000 as described above for intestinal contents and feces. Group separation of bile acids, according to their mode of conjugation was achieved by lipophilic anion-exchange chromatography. Extracts from each animal were pooled, and bile acids and their conjugates were separated using Lipidex-DEAP and stepwise elution of the gel bed with the following buffers: 0.1 mol/L acetic acid in 72% ethanol (unconjugated bile acids); 0.3 mol/L acetic acid in 72% ethanol, pH 5.0 (glycine conjugates); 0.15 mol/L acetic acid in 72% ethanol, pH 6.5 (taurine conjugates); and 0.3 mol/L acetic acid in 72% ethanol, pH 9.6 (sulfate conjugates). After evaporation of the buffers, sulfated bile acids were solvolyzed, whereas amidated conjugates were hydrolyzed with 50 U of cholylglycine hydrolase (Sigma Chemical Co.) in 2.5 mL of 0.2 mol/L phosphate buffer, pH 5.6, at 37° C. overnight. The resulting unconjugated bile acids were isolated on Lipidex-DEAP, and the methyl ester-trimethylsilyl ether derivatives were prepared as described above.
# GC-MS analysis was performed using a Finnigan 4635 mass spectrometer (Finnigan Inc., San Jose, Calif.) that housed an identical gas chromatography column operated under the same conditions. Electron ionization (70 eV) mass spectra were recorded over the mass range of 50-800 daltons by repetitive scanning of the eluting components. Identification of bile acids was made on the basis of the gas chromatography retention index relative to a homologous series of n-alkanes, referred to as the methylene unit value, and the mass spectrum compared with authentic standards. Quantification of bile acids was achieved using gas chromatography by comparing the peak height response of the individual bile acids with the peak height response obtained from the internal standard.
# Data are expressed as mean±SEM or as mean values of all animals when extracts were pooled before analysis. Results from different groups were compared using paired and unpaired two-tailed Student's t-test. P values of <0.05 were considered statistically significant.
# [2] = tested on: bile acids secreted in bile; test: Biliary bile acid composition during i.v. infusion (GC-MS); format: in vivo, Sprague-Dawley rats; conditions: for Further hydroxylation (in words): GC-MS of bile
# Description: Adult male Sprague-Dawley rats (body weight 200-230 g) were anesthetized by an intraperitoneal injection of pentobarbital (Nembutal, 7.5 mg/100 g body weight), and maintained under sedation by additional doses. The right jugular vein and the common bile duct were cannulated using PE-50 polyethylene tubing (Clay-Adams, Parsippany, N.J.). Body temperature was maintained throughout the experiment at 37° C. using a rectal probe and a thermostatically controlled heating pad (Harvard Apparatus Co., Inc., Millis, Mass.). Saline was infused at a rate of 1.0 ml/h using a Harvard pump (Harvard Apparatus Co., Inc.) into the jugular vein for a control period of 2h. After collecting two 10 minute bile samples for base-line analysis, the bile acids were individually infused intravenously (i.v.) for 30 minutes in stepwise increasing doses (0.5, 1.0, and 2.0 μmol/min/100 g body weight). Bile acid solutions were prepared in 3% human albumin in 0.45% saline. Six animals were used for each experiment and bile was collected every 10 minutes into preweighed tubes. At the end of the experiment, blood was obtained by cardiac puncture, and urine was obtained by aspiration of the bladder. All biological specimens were stored at -20° C. This animal study protocol (#1 B 10044) was approved by the Bioethics committee of the Children's Hospital Medical Center (Cincinnati, Ohio).
# GC-MS was carried out on either a VG Autospec Q magnetic sector instrument or a Finnigan 4635 quadruple GC-MS-DS instrument housing identical GC columns and operated under the same chromatographic conditions. Electron ionization (70 eV) mass spectra were recorded over the mass range 50 to 1000 Da/e by repetitive scanning of the eluting components.
# For the determination of hepatic biotransformation of the infused bile acid, bile collections from the six animal were pooled and biliary bile acids were determined by GC-MS after extraction, solvolysis, hydrolysis, and derivatization. Quantification of bile acids was achieved using GC, by comparing the peak height response of the individual bile acid with the peak height response obtained from the internal standard, nordeoxycholic acid added to the initial sample of bile. Identification of a bile acid was made on the basis of the retention index relative to a homologous series of n-alkanes, referred to as the methylene unit value (MU) and the fragmentation pattern of the mass spectrum was compared with authentic standards. A list of over 100 mass spectra of authentic bile acid standards and retention indices was recently compiled as a reference source (Lawson, A. M., et al, Mass spectrometry of bile acids, The Bile Acids, Vol. 4, Methods and Applications, pp. 167-267 (1988)).
structure (smiles),measurement,setting,value
"C[C@H](CCC(=O)O)[C@H]1CC[C@H]2[C@@H]3[C@@H](O)C[C@@H]4C[C@H](O)CC[C@]4(C)[C@H]3CC[C@]12C [UDCA, 3 alpha, 7 beta-dihydroxy-5 beta-cholan-24oic acid, reference compound]",Conjugation of UDCA in liver tissue,[1]; oral,"biotransformed by conjugation, mainly with taurine; also recorded: predominantly conjugated by amidation"
same,Fold decrease of liver tissue cholic acid concentration,[1]; oral,~4 fold
same,Chenodeoxycholic acid concentration in liver,"[1]; oral gavage 250 mg/day, 4 days",12.4 nmol/g
same,Chenodeoxycholic acid percent of hepatic bile acids,"[1]; oral gavage 250 mg/day, 4 days",3.7%
same,Cholic acid concentration in liver,"[1]; oral gavage 250 mg/day, 4 days",42.3 nmol/g
same,Cholic acid percent of hepatic bile acids,"[1]; oral gavage 250 mg/day, 4 days",12.7%
same,Deoxycholic acid concentration in liver,"[1]; oral gavage 250 mg/day, 4 days",22.5 nmol/g
same,Deoxycholic acid percent of hepatic bile acids,"[1]; oral gavage 250 mg/day, 4 days",6.8%
same,Lithocholic acid concentration in liver,"[1]; oral gavage 250 mg/day, 4 days",8.0 nmol/g
same,Lithocholic acid percent of hepatic bile acids,"[1]; oral gavage 250 mg/day, 4 days",2.4%
same,Total bile acid concentration in liver,"[1]; oral gavage 250 mg/day, 4 days",331.8 nmol/g
same,UDCA concentration in liver,"[1]; oral gavage 250 mg/day, 4 days",99.6 nmol/g
same,UDCA percent of hepatic bile acids,"[1]; oral gavage 250 mg/day, 4 days",30.0%
same,Δ^22-UDCA concentration in liver,"[1]; oral gavage 250 mg/day, 4 days",37.4 nmol/g
same,Δ^22-UDCA percent of hepatic bile acids,"[1]; oral gavage 250 mg/day, 4 days",11.3%
same,Δ^22-β-Muricholic acid concentration in liver,"[1]; oral gavage 250 mg/day, 4 days",20.9 nmol/g
same,Δ^22-β-Muricholic acid percent of hepatic bile acids,"[1]; oral gavage 250 mg/day, 4 days",6.3%
same,Δ^22-ω-Muricholic acid concentration in liver,"[1]; oral gavage 250 mg/day, 4 days",4.8 nmol/g
same,Δ^22-ω-Muricholic acid percent of hepatic bile acids,"[1]; oral gavage 250 mg/day, 4 days",1.4%
same,α-Muricholic acid concentration in liver,"[1]; oral gavage 250 mg/day, 4 days",16.1 nmol/g
same,α-Muricholic acid percent of hepatic bile acids,"[1]; oral gavage 250 mg/day, 4 days",4.8%
same,β-Muricholic acid concentration in liver,"[1]; oral gavage 250 mg/day, 4 days",60.6 nmol/g
same,β-Muricholic acid percent of hepatic bile acids,"[1]; oral gavage 250 mg/day, 4 days",18.3%
same,ω-Muricholic acid concentration in liver,"[1]; oral gavage 250 mg/day, 4 days",6.3 nmol/g
same,ω-Muricholic acid percent of hepatic bile acids,"[1]; oral gavage 250 mg/day, 4 days",1.9%
same,Hepatic UDCA concentration change (in words),"[1]; oral, vs control",increased concentrations and proportions of liver tissue UDCA; also recorded: increased markedly
same,Hepatic lithocholic acid change (in words),"[1]; oral, vs control",increased hepatic lithocholic acid concentration
same,Relative % composition in bile: CA,[2]; 20-30 mins,49.0%
same,Relative % composition in bile: CDCA,[2]; 20-30 mins,3.0%
same,Relative % composition in bile: DCA,[2]; 20-30 mins,1.0%
same,Relative % composition in bile: MCA,[2]; 20-30 mins,1.0%
same,Relative % composition in bile: UDCA,[2]; 20-30 mins,51.9%
same,Relative % composition in bile: others,[2]; 20-30 mins,14.6%
same,Relative % composition in bile: α-MCA,[2]; 20-30 mins,4.3%
same,Relative % composition in bile: β-MCA,[2]; 20-30 mins,17.2%
same,Relative % composition in bile: CA,[2]; 50-60 mins,21.4%
same,Relative % composition in bile: CDCA,[2]; 50-60 mins,2.5%
same,Relative % composition in bile: DCA,[2]; 50-60 mins,0.5%
same,Relative % composition in bile: MCA,[2]; 50-60 mins,0.5%
same,Relative % composition in bile: UDCA,[2]; 50-60 mins,65.9%
same,Relative % composition in bile: others,[2]; 50-60 mins,13.7%
same,Relative % composition in bile: α-MCA,[2]; 50-60 mins,3.9%
same,Relative % composition in bile: β-MCA,[2]; 50-60 mins,12.6%
same,Relative % composition in bile: CA,[2]; 80-90 mins,9.8%
same,Relative % composition in bile: CDCA,[2]; 80-90 mins,1.5%
same,Relative % composition in bile: DCA,[2]; 80-90 mins,0.7%
same,Relative % composition in bile: UDCA,[2]; 80-90 mins,79.5%
same,Relative % composition in bile: others,[2]; 80-90 mins,11.9%
same,Relative % composition in bile: α-MCA,[2]; 80-90 mins,6.4%
same,Relative % composition in bile: β-MCA,[2]; 80-90 mins,9.9%
same,Further hydroxylation (in words),[2],"metabolized by further hydroxylation, most probably in the side-chain"
"C[C@H](CCC(=O)O)[C@H]1CC[C@H]2[C@@H]3[C@@H](O)C[C@@H]4C[C@H](OS(=O)(=O)O)CC[C@]4(C)[C@H]3CC[C@]12C [UDCA-3S, ursodeoxycholic acid 3-sulfate]",Chenodeoxycholic acid concentration in liver,"[1]; oral gavage 250 mg/day, 4 days",9.2 nmol/g
same,Chenodeoxycholic acid percent of hepatic bile acids,"[1]; oral gavage 250 mg/day, 4 days",2.5%
same,Cholic acid concentration in liver,"[1]; oral gavage 250 mg/day, 4 days",86.6 nmol/g
same,Cholic acid percent of hepatic bile acids,"[1]; oral gavage 250 mg/day, 4 days",23.9%
same,Deoxycholic acid concentration in liver,"[1]; oral gavage 250 mg/day, 4 days",52.6 nmol/g
same,Deoxycholic acid percent of hepatic bile acids,"[1]; oral gavage 250 mg/day, 4 days",14.5%
same,Lithocholic acid concentration in liver,"[1]; oral gavage 250 mg/day, 4 days",3.2 nmol/g
same,Lithocholic acid percent of hepatic bile acids,"[1]; oral gavage 250 mg/day, 4 days",0.9%
same,Total bile acid concentration in liver,"[1]; oral gavage 250 mg/day, 4 days",361.7 nmol/g
same,UDCA percent of hepatic bile acids,"[1]; oral gavage 250 mg/day, 4 days",15.6%
same,Δ^22-UDCA concentration in liver,"[1]; oral gavage 250 mg/day, 4 days",31.3 nmol/g
same,Δ^22-UDCA percent of hepatic bile acids,"[1]; oral gavage 250 mg/day, 4 days",8.6%
same,Δ^22-β-Muricholic acid concentration in liver,"[1]; oral gavage 250 mg/day, 4 days",36.3 nmol/g
same,Δ^22-β-Muricholic acid percent of hepatic bile acids,"[1]; oral gavage 250 mg/day, 4 days",10.0%
same,Δ^22-ω-Muricholic acid concentration in liver,"[1]; oral gavage 250 mg/day, 4 days",6.3 nmol/g
same,Δ^22-ω-Muricholic acid percent of hepatic bile acids,"[1]; oral gavage 250 mg/day, 4 days",1.7%
same,α-Muricholic acid concentration in liver,"[1]; oral gavage 250 mg/day, 4 days",6.0 nmol/g
same,α-Muricholic acid percent of hepatic bile acids,"[1]; oral gavage 250 mg/day, 4 days",1.6%
same,β-Muricholic acid concentration in liver,"[1]; oral gavage 250 mg/day, 4 days",65.4 nmol/g
same,β-Muricholic acid percent of hepatic bile acids,"[1]; oral gavage 250 mg/day, 4 days",18.1%
same,ω-Muricholic acid concentration in liver,"[1]; oral gavage 250 mg/day, 4 days",8.1 nmol/g
same,ω-Muricholic acid percent of hepatic bile acids,"[1]; oral gavage 250 mg/day, 4 days",2.2%
same,Hepatic UDCA concentration change (in words),"[1]; oral, vs control",increased concentrations and proportions of liver tissue UDCA
same,Conjugation of UDCA in liver tissue,"[1]; oral, listed as C-3 sulfate","biotransformed by conjugation, mainly with taurine"
same,Conjugation of UDCA in liver tissue,"[1]; oral, listed as UDCA 3-sulfate",significant desulfation and amidation
same,Relative % composition in bile: CA,[2]; 20-30 mins,36.0%
same,Relative % composition in bile: CDCA,[2]; 20-30 mins,4.6%
same,Relative % composition in bile: DCA,[2]; 20-30 mins,2.5%
same,Relative % composition in bile: MCA,[2]; 20-30 mins,4.9%
same,Relative % composition in bile: UDCA,[2]; 20-30 mins,33.3%
same,Relative % composition in bile: others,[2]; 20-30 mins,5.2%
same,Relative % composition in bile: α-MCA,[2]; 20-30 mins,6.2%
same,Relative % composition in bile: β-MCA,[2]; 20-30 mins,12.4%
same,Relative % composition in bile: CA,[2]; 50-60 mins,14.9%
same,Relative % composition in bile: CDCA,[2]; 50-60 mins,1.9%
same,Relative % composition in bile: DCA,[2]; 50-60 mins,1.0%
same,Relative % composition in bile: MCA,[2]; 50-60 mins,1.5%
same,Relative % composition in bile: UDCA,[2]; 50-60 mins,70.6%
same,Relative % composition in bile: others,[2]; 50-60 mins,11.5%
same,Relative % composition in bile: α-MCA,[2]; 50-60 mins,2.7%
same,Relative % composition in bile: β-MCA,[2]; 50-60 mins,7.4%
same,Relative % composition in bile: CA,[2]; 80-90 mins,18.2%
same,Relative % composition in bile: CDCA,[2]; 80-90 mins,2.5%
same,Relative % composition in bile: DCA,[2]; 80-90 mins,1.3%
same,Relative % composition in bile: MCA,[2]; 80-90 mins,2.0%
same,Relative % composition in bile: UDCA,[2]; 80-90 mins,67.7%
same,Relative % composition in bile: others,[2]; 80-90 mins,11.2%
same,Relative % composition in bile: α-MCA,[2]; 80-90 mins,3.0%
same,Relative % composition in bile: β-MCA,[2]; 80-90 mins,5.2%
same,Further hydroxylation (in words),[2],"metabolized by further hydroxylation, most probably in the side-chain"
